Source: US20220081412A1, “QUINOLINYL-PYRAZINE-CARBOXAMIDE COMPOUNDS AND USES THEREOF” (The Regents of the University of Michigan, priority 2018, published 2022)

System: MIA PaCa-2 cells
Assay: Bru-seq analysis for nascent RNA synthesis (log2FC of genes, GSEA gene sets)
Assay type: cell-based, human
Details: 4 h, MIA PaCa-2 cells
[1] = top upregulated protein-coding genes
[2] = upregulated gene sets, HALLMARK

## Cc1cc(NC(=O)c2cnc(N3CCNCC3)cn2)c2ncccc2c1 [J28, N-(6-methylquinolin-8-yl)-5-(piperazin-1-yl)pyrazine-2-carboxamide]
[1]
  log2FC UAP1L1: 1.26
  log2FC ZC3H12A: 1.27
Upregulated gene sets, C2
  ES AMUNDSON_GAMMA_RADIATION_RESPONSE: 0.673
  ES BANDRES_RESPONSE_TO_CARMUSTIN_MGMT_48HR_DN: 0.612
  ES CAMPS_COLON_CANCER_COPY_NUMBER_UP: 0.653
  ES DACOSTA_UV_RESPONSE_VIA_ERCC3_UP: 0.506
  ES DAIRKEE_TERT_TARGETS_UP: 0.528
  ES DEBIASI_APOPTOSIS_BY_REOVIRUS_INFECTION_DN: 0.488
  ES DIRMEIER_LMPl_RESPONSE_EARLY: 0.670
  ES ENK_UV_RESPONSE_KERATINOCYTE_UP: 0.501
  ES FERREIRA_EWINGS_SARCOMA_UNSTABLE_VS_STABLE_DN: 0.623
  ES GINESTIER_BREAST_CANCER_ZNF217_AMPLIFIED_DN: 0.481
  ES HORTON_SREBF_TARGETS: 0.807
  ES KEGG_SYSTEMIC_LUPUS_ERYTHEMATOSUS: 0.661
  ES KIM_ALL_DISORDERS_DURATION_CORR_DN: 0.615
  ES LEONARD_HYPDXIA: 0.716
  ES MARTENS_TRETINOIN_RESPONSE_UP: 0.552
  ES NIKOLSKY_BREAST_CANCER_16P13_AMPLICON: 0.699
  ES NIKOLSKY_BREAST_CANCER_16Q24_AMPLICON: 0.706
  ES QI_HYPOXIA: 0.559
  ES REACTOME_AMYLOIDS: 0.710
  ES REACTOME_CHOLESTEROL_BIOSYNTHESIS: 0.821
  ES REACTOME_PEPTIDE_CHAIN_ELONGATION: 0.564
  ES REACTOME_RNA_POL_I_PROMOTER_OPENING: 0.769
  ES REACTOME_RNA_POL_I_TRANSCRIPTION: 0.622
  ES RICKMAN_METASTASIS_DN: 0.556
  ES SCHMIDT_POR_TARGETS_IN_LIMB_BUD_UP: 0.788
  NES AMUNDSON_GAMMA_RADIATION_RESPONSE: 2.280
  NES BANDRES_RESPONSE_TO_CARMUSTIN_MGMT_48HR_DN: 2.308
  NES CAMPS_COLON_CANCER_COPY_NUMBER_UP: 2.238
  NES DACOSTA_UV_RESPONSE_VIA_ERCC3_UP: 2.272
  NES DAIRKEE_TERT_TARGETS_UP: 2.400
  NES DEBIASI_APOPTOSIS_BY_REOVIRUS_INFECTION_DN: 2.211
  NES DIRMEIER_LMPl_RESPONSE_EARLY: 2.238
  NES ENK_UV_RESPONSE_KERATINOCYTE_UP: 2.338
  NES FERREIRA_EWINGS_SARCOMA_UNSTABLE_VS_STABLE_DN: 2.223
  NES GINESTIER_BREAST_CANCER_ZNF217_AMPLIFIED_DN: 2.203
  NES HORTON_SREBF_TARGETS: 2.353
  NES KEGG_SYSTEMIC_LUPUS_ERYTHEMATOSUS: 2.294
  NES KIM_ALL_DISORDERS_DURATION_CORR_DN: 2.457
  NES LEONARD_HYPDXIA: 2.369
  NES MARTENS_TRETINOIN_RESPONSE_UP: 2.244
  NES NIKOLSKY_BREAST_CANCER_16P13_AMPLICON: 2.231
  NES NIKOLSKY_BREAST_CANCER_16Q24_AMPLICON: 2.371
  NES QI_HYPOXIA: 2.230
  NES REACTOME_AMYLOIDS: 2.374
  NES REACTOME_CHOLESTEROL_BIOSYNTHESIS: 2.387
  NES REACTOME_PEPTIDE_CHAIN_ELONGATION: 2.220
  NES REACTOME_RNA_POL_I_PROMOTER_OPENING: 2.411
  NES REACTOME_RNA_POL_I_TRANSCRIPTION: 2.250
  NES RICKMAN_METASTASIS_DN: 2.370
  NES SCHMIDT_POR_TARGETS_IN_LIMB_BUD_UP: 2.303
[2]
  ES HALLMARK_ADIPOGENESIS: 0.383
  ES HALLMARK_ANDROGEN_RESPONSE: 0.356
  ES HALLMARK_APICAL_JUNCTION: 0.359
  ES HALLMARK_APOPTOSIS: 0.390
  ES HALLMARK_BILE_ACID_METABOLISM: 0.361
  ES HALLMARK_CHOLESTEROL_HOMEOSTASIS: 0.656
  ES HALLMARK_COAGULATION: 0.474
  ES HALLMARK_DNA_REPAIR: 0.336
  ES HALLMARK_ESTROGEN_RESPONSE_EARLY: 0.354
  ES HALLMARK_ESTROGEN_RESPONSE_LATE: 0.335
  ES HALLMARK_FATTY_ACID_METABOLISM: 0.392
  ES HALLMARK_GLYCOLYSIS: 0.321
  ES HALLMARK_HEME_METABOLISM: 0.367
  ES HALLMARK_HYPOXIA: 0.479
  ES HALLMARK_MTORC1_SIGNALING: 0.436
  ES HALLMARK_MYOGENESIS: 0.560
  ES HALLMARK_NOTCH_SIGNALING: 0.494
  ES HALLMARK_OXIDATIVE_PHOSPHORYLATION: 0.351
  ES HALLMARK_P53_PATHWAY: 0.471
  ES HALLMARK_PEROXISOME: 0.379
  ES HALLMARK_PI3K_AKT_MTOR_SIGNALING: 0.426
  ES HALLMARK_UNFOLDED_PROTEIN_RESPONSE: 0.433
  ES HALLMARK_UV_RESPONSE_UP: 0.436
  ES HALLMARK_WNT_BETA_CATENIN_SIGNALING: 0.481
  ES HALLMARK_XENOBIOTIC_METABOLISM: 0.348
  NES HALLMARK_ADIPOGENESIS: 1.653
  NES HALLMARK_ANDROGEN_RESPONSE: 1.381
  NES HALLMARK_APICAL_JUNCTION: 1.422
  NES HALLMARK_APOPTOSIS: 1.615
  NES HALLMARK_BILE_ACID_METABOLISM: 1.330
  NES HALLMARK_CHOLESTEROL_HOMEOSTASIS: 2.374
  NES HALLMARK_COAGULATION: 1.628
  NES HALLMARK_DNA_REPAIR: 1.407
  NES HALLMARK_ESTROGEN_RESPONSE_EARLY: 1.458
  NES HALLMARK_ESTROGEN_RESPONSE_LATE: 1.358
  NES HALLMARK_FATTY_ACID_METABOLISM: 1.605
  NES HALLMARK_GLYCOLYSIS: 1.363
  NES HALLMARK_HEME_METABOLISM: 1.548
  NES HALLMARK_HYPOXIA: 1.984
  NES HALLMARK_MTORC1_SIGNALING: 1.917
  NES HALLMARK_MYOGENESIS: 2.098
  NES HALLMARK_NOTCH_SIGNALING: 1.473
  NES HALLMARK_OXIDATIVE_PHOSPHORYLATION: 1.548
  NES HALLMARK_P53_PATHWAY: 1.986
  NES HALLMARK_PEROXISOME: 1.483
  NES HALLMARK_PI3K_AKT_MTOR_SIGNALING: 1.634
  NES HALLMARK_UNFOLDED_PROTEIN_RESPONSE: 1.739
  NES HALLMARK_UV_RESPONSE_UP: 1.773
  NES HALLMARK_WNT_BETA_CATENIN_SIGNALING: 1.483
  NES HALLMARK_XENOBIOTIC_METABOLISM: 1.415
